We go through 51 compounds from BindingDB's records for patent US11547697 (Millennium Pharmaceuticals, 2023).

pIC50: −log10 of the molar value.

This assay has as its target T1, Phosphatidylinositol 4,5-bisphosphate 3-kinase catalytic subunit delta isoform (Homo sapiens, UniProt O00329).
T1 sequence (O00329 whole entry): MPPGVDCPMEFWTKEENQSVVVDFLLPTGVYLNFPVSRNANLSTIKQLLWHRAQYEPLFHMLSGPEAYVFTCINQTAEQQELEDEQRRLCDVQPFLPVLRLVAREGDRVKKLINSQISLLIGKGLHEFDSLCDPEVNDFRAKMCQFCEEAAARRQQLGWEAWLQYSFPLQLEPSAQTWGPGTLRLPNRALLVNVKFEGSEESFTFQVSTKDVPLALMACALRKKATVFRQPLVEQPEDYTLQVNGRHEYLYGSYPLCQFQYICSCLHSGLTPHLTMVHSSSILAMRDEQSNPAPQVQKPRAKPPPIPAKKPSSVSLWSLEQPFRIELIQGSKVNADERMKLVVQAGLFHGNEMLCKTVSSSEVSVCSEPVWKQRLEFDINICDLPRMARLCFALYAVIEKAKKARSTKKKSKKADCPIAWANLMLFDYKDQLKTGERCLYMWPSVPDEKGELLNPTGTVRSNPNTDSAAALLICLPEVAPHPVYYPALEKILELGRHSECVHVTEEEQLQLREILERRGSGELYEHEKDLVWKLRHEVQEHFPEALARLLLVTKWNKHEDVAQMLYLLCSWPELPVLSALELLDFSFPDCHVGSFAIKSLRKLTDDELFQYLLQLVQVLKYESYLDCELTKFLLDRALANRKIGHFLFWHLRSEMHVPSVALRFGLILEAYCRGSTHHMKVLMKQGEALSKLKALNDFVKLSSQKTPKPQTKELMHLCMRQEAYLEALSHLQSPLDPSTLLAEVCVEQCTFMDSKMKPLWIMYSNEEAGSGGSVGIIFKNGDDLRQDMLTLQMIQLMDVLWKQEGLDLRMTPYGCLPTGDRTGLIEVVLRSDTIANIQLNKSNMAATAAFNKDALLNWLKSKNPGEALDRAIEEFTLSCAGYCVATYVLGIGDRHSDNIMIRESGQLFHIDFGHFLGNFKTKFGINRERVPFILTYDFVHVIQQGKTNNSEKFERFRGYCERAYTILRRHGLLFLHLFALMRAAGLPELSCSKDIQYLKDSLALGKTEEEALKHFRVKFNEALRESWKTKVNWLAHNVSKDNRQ
As to the kind of experiment: Inhibition Assay of PI3K.
Method: An exemplary system is PI 3-Kinase (human) HTRF Assay from Upstate. […] Briefly, the assay is a time resolved FRET assay that indirectly measures PIP3 product formed by the activity of a PI3-K. The kinase reaction is performed in a microtitre plate (e.g., a 384 well microtitre plate). The total reaction volume is approximately 20 ul per well. In the first step, each well receives 2 ul of test compound in 20% dimethylsulphoxide resulting in a 2% DMSO final concentration. Next, approximately 14.5 ul of a kinase/PIP2 mixture (diluted in 1× reaction buffer) is added per well for a final concentration of 0.25-0.3 ug/ml kinase and 10 μM PIP2. The plate is sealed and incubated for 15 minutes at room temperature. To start the reaction, 3.5 ul of ATP (diluted in 1× reaction buffer) is added per well for a final concentration of 10 μM ATP. The plate is sealed and incubated for 1 hour at room temperature. The reaction is stopped by adding 5 ul of Stop Solution per well and then 5 ul of Detection Mix is added per well. The plate is sealed, incubated for 1 hour at room temperature, and then read on an appropriate plate reader.
In turn, `Nc1nc2cc(-c3ccc4nccc(NC5CCOCC5)c4c3)ccc2o1` [US11547697, Compound 32] gave a pIC50 below 5.00. The result for `Nc1nc2cc(-c3ccc4nccn4c3)ccc2o1` [US11547697, Compound 40] reads below 5.00; that for `Cc1nc2ccc(-c3ccc4oc(N)nc4c3)nn2c1-c1ccncc1` [US11547697, Compound 56], below 5.00; that for `Nc1nc2cc(-c3ccc4ncc(N5CCOCC5)n4n3)ccc2o1` [US11547697, Compound 57], below 5.00. As to `Nc1nc2cc(-c3ccc4ncc(N5CCOCC5)nc4c3)ccc2o1` [US11547697, Compound 64], the pIC50 was below 5.00.

Turning to `Nc1nc2cc(-c3ccc4ncc(=O)[nH]c4c3)ccc2o1` [US11547697, Compound 72], the pIC50 was below 5.00. Compound `CC(C)N1CCC(n2cnc3ccc(-c4ccc5oc(N)nc5c4)cc3c2=O)CC1` [US11547697, Compound 74] had a pIC50 below 5.00.

`Nc1nc2cc(-c3ccc4ncn(C5CCNCC5)c(=O)c4c3)ccc2o1` [US11547697, Compound 75]: the pIC50 was below 5.00. Under `Nc1nc2cc(-c3ccc4ncc(C(=O)N5CCOCC5)n4n3)ccc2o1` [US11547697, Compound 105] stands below 5.00; under `Nc1nc2cc(-c3ccc4ncc(-c5cnn(CCO)c5)nc4c3)ccc2o1` [US11547697, Compound 108], below 5.00. The result for `CN1CCN(c2cnc3ccc(-c4ccc5nc(N)sc5c4)cc3n2)CC1` [US11547697, Compound 115] reads below 5.00.

As for `Nc1nc2cc(-c3ccc4ncc(N5CCOCC5)nc4c3)ccc2s1` [US11547697, Compound 116], the pIC50 was below 5.00. In the case of `Nc1nc2ccc(-c3ccc4ncc(N5CCOCC5)nc4c3)cc2o1` [US11547697, Compound 117], the pIC50 is below 5.00. Under `CN1CCN(c2cnc3ccc(-c4ccc5nc(N)oc5c4)cc3n2)CC1` [US11547697, Compound 118] stands below 5.00; under `Nc1nc2ccc(-c3ccc4ncc(C(=O)N5CCOCC5)n4c3)cc2o1` [US11547697, Compound 124], below 5.00; under `Nc1nc2cc(-c3ccc4ncc(C(=O)N5CCOCC5)n4c3)ccc2s1` [US11547697, Compound 126], below 5.00. The result for `CN1CCN(c2cnc3ccc(-c4ccc5sc(N)nc5c4)cc3n2)CC1` [US11547697, Compound 127] reads below 5.00; that for `Nc1nc2cc(-c3ccc4ncc(N5CCNC(=O)C5)nc4c3)ccc2o1` [US11547697, Compound 135], below 5.00. The result for `CN1CCCN(c2cnc3ccc(-c4ccc5oc(N)nc5c4)cc3n2)CC1` [US11547697, Compound 136] reads below 5.00; that for `CN1CCN(C(=O)c2cnc3ccc(-c4ccc5nc(N)oc5c4)cn23)CC1` [US11547697, Compound 145], below 5.00. For the compound `CN(CCN1CCOCC1)c1cnc2ccc(-c3ccc4oc(N)nc4c3)cc2n1` [US11547697, Compound 166], the negative logarithm of the IC50 (pIC50) is below 5.00. Under `Nc1nc2cc(-c3ccc4ncn(CCO)c(=O)c4c3)ccc2o1` [US11547697, Compound 184] stands below 5.00; under `Nc1nc2cc(-c3ccc4ncc(-c5ccccn5)nc4c3)ccc2o1` [US11547697, Compound 195], below 5.00; under `Nc1nc2cc(-c3ccc4ncc(C(=O)N5CCCCC5)n4c3)ccc2o1` [US11547697, Compound 196], below 5.00. Consider `CC1CN(C(=O)c2cnc3ccc(-c4ccc5oc(N)nc5c4)cn23)CCO1` (stereo unspecified) [US11547697, Compound 201], for which the pIC50 is below 5.00. As for `Nc1nc2cc(-c3ccc4nnc(-c5ccncc5)n4c3)ccc2o1` [US11547697, Compound 229], the negative-log IC50 (pIC50) is below 5.00.

In turn, `CC(=O)Nc1nc2ccc(-c3ccc4nc(N)oc4c3)cc2s1` [US11547697, Compound 242] had a negative-log IC50 (pIC50) below 5.00.

In turn, `Nc1nc2ccc(-c3ccc4nc(N)sc4c3)cc2o1` [US11547697, Compound 243] gave a pIC50 below 5.00. The result for `Nc1cn2cc(-c3ccc4oc(N)nc4c3)ccc2n1` [US11547697, Compound 245] reads below 5.00; that for `Nc1nc2cc(-c3ccc4ncc(N5CCN(C6CC6)CC5)nc4c3)ccc2o1` [US11547697, Compound 261], below 5.00. Under `COCCn1cnc2ccc(-c3ccc4oc(N)nc4c3)cc2c1=O` [US11547697, Compound 272] stands below 5.00; under `Nc1nc2cc(-c3ccc4ncn(CCN5CCOCC5)c(=O)c4c3)ccc2o1` [US11547697, Compound 289], below 5.00; under `C[C@H]1CN(c2cnc3ccc(-c4ccc5nc(N)sc5c4)cc3n2)CCN1` [US11547697, Compound 308], below 5.00.

Regarding `C[C@H]1CN(c2cnc3ccc(-c4ccc5nc(N)oc5c4)cc3n2)CCN1` [US11547697, Compound 309], the pIC50 is below 5.00. `Nc1nc2cc(-c3ccc4ncc(C(=O)N(CCO)CCO)n4c3)ccc2o1` [US11547697, Compound 316] had a pIC50 below 5.00.

`Nc1nc2cc(-c3ccc4ncc(N5CC(n6cccn6)C5)nc4c3)ccc2o1` [US11547697, Compound 318] showed a pIC50 below 5.00. `Nc1nc2cc(-c3ccn4ncc(C(=O)N5CCCC5)c4c3)ccc2o1` [US11547697, Compound 346] gave a pIC50 below 5.00. Under `Nc1nc2cc(-c3ccn4ncc(C(=O)N5CCOCC5)c4c3)ccc2o1` [US11547697, Compound 347] stands below 5.00; under `Cc1cc(-c2ccc3ncc(C(=O)N4CCOCC4)n3c2)cc2nc(N)oc12` [US11547697, Compound 364], below 5.00; under `CN(C)C1CN(c2cnc3ccc(-c4ccc5oc(N)nc5c4)cc3n2)C1` [US11547697, Compound 366], below 5.00. Under `COCCN1CCN(c2cnc3ccc(-c4ccc5oc(N)nc5c4)cc3n2)CC1` [US11547697, Compound 387] stands below 5.00. The result for `Nc1nc2cc(-c3ccc4ncc(C(=O)N5CCOCC5)n4c3)cnc2o1` [US11547697, Compound 400] reads below 5.00. As for `Nc1nc2cc(-c3ccc4c(N)n[nH]c4c3)ccc2o1` [US11547697, Compound 428], the pIC50 is below 5.00. Under `CC(=O)Nc1n[nH]c2cc(-c3ccc4oc(N)nc4c3)ccc12` [US11547697, Compound 430] stands below 5.00.

The compound `Nc1nc2cc(-c3cc(F)c4oc(N)nc4c3)ccc2o1` [US11547697, Compound 432] gave a pIC50 below 5.00. The result for `CC(=O)Nc1nc2cc(-c3cc(F)c4oc(N)nc4c3)ccc2s1` [US11547697, Compound 435] reads below 5.00. Under `Nc1nc2cc(-c3ccc4sc(N)nc4c3)cc(F)c2o1` [US11547697, Compound 437] stands below 5.00. `Cc1cc(-c2ccc3nc(N)oc3c2)cn2c(C(=O)N3CCOCC3)cnc12` [US11547697, Compound 449] had a pIC50 below 5.00. Under `Nc1nc2cc(-c3ccc4ncc(C(=O)N5CC(F)C5)n4c3)ccc2o1` [US11547697, Compound 468] stands below 5.00. The result for `C[C@H]1COCCN1C(=O)c1cnc2ccc(-c3ccc4oc(N)nc4c3)cn12` [US11547697, Compound 483] reads below 5.00; that for `Nc1nc2cc(-c3ccc4ncc(C(=O)N5CCn6cncc6C5)n4c3)ccc2o1` [US11547697, Compound 493], below 5.00.

Usually pIC50 stands for the negative decadic logarithm of the IC50, by convention in mol/L. A high value points to a low IC50.
